Results as given in patent publication EP0536208B1, “1,2-DIHYDRO-3H-DIBENZISOQUINOLINE-1,3-DIONE ANTICANCER AGENTS” (RESEARCH CORPORATION TECHNOLOGIES, INC., priority 1990, dated 1992).
In brackets after ≈: the same amount, converted by molar mass. Like-named read-outs stand apart in the source and are kept apart here.

How the values were obtained:
Type in all cases: cell-based
8226 Human Myeloma = experiment: In vitro tumor cell viability assay using MTT dye
Protocol: (§1) Compounds of the present invention were tested for their in vitro activity in tumor cells sensitive and resistant to standard anti-cancer agents. The tumor cell lines used in this protocol are 8226 human Myeloma^1; 8226/Dox-40^2, L-1210/Murine Leukemia, multidrug resistant L-210/^3, 2780 Human Ovarian Cancer and 2780/AD^4. Each of these resistant cell lines is known as a multidrug resistant or "MDR" cell line. These cell lines produce a 170,00 molecular weight membrane protein termed the P-glycoprotein which acts as an active drug efflux pump. Thus, once a cell produces the P-glycoprotein, it has the capability of pumping out of the cell a large variety of unrelated natural products. […] The protocol for measuring the effectiveness of compounds of the present invention is as follows: 2) In Vitro Tumor Cell Viability Assays Using MTT-Dye: Tumors are processed into a single cell suspension as described above. The cells are plated at a concentration of 3-5 X 10^4/1 mL well into plastic 96-well plates. […] Afterwards the medium containing the drug is removed, the cells are "washed" by centrifugation in fresh medium or phosphate-buffered saline (pH 7.4). A tetrazolium dye is then added (3,4,5-dimethylthiazol-2-yl)-2,5-diphenyl tetrazolium bromide (MTT). This dye forms a colored formazan product upon activation by mitochondrial reductases in viable cells. Typically, the formazan product is solubilized in acid-propanol or DMSO. The intensity of the color is proportional to viable cell numbers and this is quantitated by spectrophotometric absorbance ([…]) on a micro ELISA plate reader. Test results are calibrated in % control absorbance from untreated tumor cells (Mossman T: J Immunol Meth 65:55-63, 1983). Using the above procedure, Compound 1 was tested for its cytotoxic activity with respect to various tumor cell lines.

[1] = system: 2780 Human Ovarian Cancer; experiment: In vitro tumor cell viability assay using MTT dye; conditions: MTT dye reduction
Protocol: as §1

L-1210/Murine Leukemia = experiment: In vitro tumor cell viability assay using MTT dye; conditions: Mus musculus
Protocol: as §1

Melanoma = experiment: Colony forming assay in fresh human tumors; conditions: .001 ug/mL continuously, tumor cell survival of less than 50% of control
Protocol: The clonogenic assays were conducted in accordance with the procedure described hereinbelow: 1) Colony Forming Assays in Soft Agar: Fresh human or murine tumors are disaggregated into single cell suspensions using mechanical, hypoosmotic and/or enzymatic (trypsin) methods. The single cells (about 5 X 10^4-10^5) are plated in 35 mm plastic petri dishes onto a 1 ml "feeder layer" of 0.3% agar dissolved in growth medium containing 5-10% vol/vol of heat-inactivated fetal bovine serum, molten 0.3% agar and the antibiotics penicillin (100 u/mL) and streptomycin (100 ug/mL). Drug exposures can be performed for one hour or continuously (drugs added to final plating medium). Tumor cell colonies > 60 uM in size are counted by automated image analysis after 10-20 days of incubation in a humidified, 5-10% CO2-gassed environment maintained at 37°C. Inhibition of colony formation is calculated based on comparisons to control (untreated) plates wherein the growth of hundreds of colonies/plate is typical. […]
Fresh human tumor specimens disaggregated to single cell suspensions and exposed to .001 ug/mL of drug continuously. Percent survival represents the fraction of tumor colonies (> 60 uM size) obtained after drug treatment compared to untreated cells of the same tumor. […] Each tumor sample is analyzed in three different petri dishes (i.e., n = 3 for each sample).

LOVOp32 = experiment: Activity against human colon tumor cells (MTT assay, 3 day drug exposure); conditions: cells plated 24 hr. prior to drug addition, read-out: Concentration for 50% inhibition of colony formation for human colon tumors
Protocol: (§2) For example, the compounds of the present invention were evaluated for cytotoxic activities in cloned human colon carcinomas. The clonogenic assays were conducted in accordance with the procedure described hereinbelow: 1) Colony Forming Assays in Soft Agar: Fresh human or murine tumors are disaggregated into single cell suspensions using mechanical, hypoosmotic and/or enzymatic (trypsin) methods. The single cells (about 5 X 10^4-10^5) are plated in 35 mm plastic petri dishes onto a 1 ml "feeder layer" of 0.3% agar dissolved in growth medium containing 5-10% vol/vol of heat-inactivated fetal bovine serum, molten 0.3% agar and the antibiotics penicillin (100 u/mL) and streptomycin (100 ug/mL). Drug exposures can be performed for one hour or continuously (drugs added to final plating medium). Tumor cell colonies > 60 uM in size are counted by automated image analysis after 10-20 days of incubation in a humidified, 5-10% CO2-gassed environment maintained at 37°C. Inhibition of colony formation is calculated based on comparisons to control (untreated) plates wherein the growth of hundreds of colonies/plate is typical. (Salmon SE, et al., N Engl J Med 298(24):1321-1327, 1978).
(§3) Compounds of the present invention were tested for their in vitro activity in tumor cells sensitive and resistant to standard anti-cancer agents. The tumor cell lines used in this protocol are 8226 human Myeloma^1; 8226/Dox-40^2, L-1210/Murine Leukemia, multidrug resistant L-210/^3, 2780 Human Ovarian Cancer and 2780/AD^4. Each of these resistant cell lines is known as a multidrug resistant or "MDR" cell line. These cell lines produce a 170,00 molecular weight membrane protein termed the P-glycoprotein which acts as an active drug efflux pump. Thus, once a cell produces the P-glycoprotein, it has the capability of pumping out of the cell a large variety of unrelated natural products. […] The protocol for measuring the effectiveness of compounds of the present invention is as follows: 2) In Vitro Tumor Cell Viability Assays Using MTT-Dye: Tumors are processed into a single cell suspension as described above. The cells are plated at a concentration of 3-5 X 10^4/1 mL well into plastic 96-well plates. Growth medium containing 5-10% (vol/vol) heat-inactivated fetal bovine serum and penicillin/streptomycin (as above) is added prior to incubation at 37°C for six days. Afterwards the medium containing the drug is removed, the cells are "washed" by centrifugation in fresh medium or phosphate-buffered saline (pH 7.4). A tetrazolium dye is then added (3,4,5-dimethylthiazol-2-yl)-2,5-diphenyl tetrazolium bromide (MTT). This dye forms a colored formazan product upon activation by mitochondrial reductases in viable cells. Typically, the formazan product is solubilized in acid-propanol or DMSO. The intensity of the color is proportional to viable cell numbers and this is quantitated by spectrophotometric absorbance ([…]) on a micro ELISA plate reader. Test results are calibrated in % control absorbance from untreated tumor cells (Mossman T: J Immunol Meth 65:55-63, 1983). Using the above procedure, Compound 1 was tested for its cytotoxic activity with respect to various tumor cell lines.

205p14 = experiment: as above; conditions: cells plated 24 hr. prior to drug addition, read-out: Concentration for 50% inhibition of colony formation for human colon tumors
Protocol: as §2, §3

CN(C)CCN1C(=O)c2cccc3cc4ccccc4c(c23)C1=O [Compound 1, 2-[2'-(dimethylamino)ethyl]-1,2-dihydro-3H-dibenz(deh)isoquinoline-1,3-dione]
IC50 (8226 Human Myeloma; 96 h, 8226 Human Myeloma, 4-day drug exposure, MTT dye reduction, read-out: Activity (IC50)): 11 ng/mL (≈ 0.0346 µM)
IC50 (8226 Human Myeloma; Homo sapiens, 8226 Myeloma Cells Sensitive, continuous exposure, MTT dye assay, read-out: IC50 VALUES): 10 ng/mL (≈ 0.0314 µM)
IC50 [1]: 4000 ng/mL (≈ 12.6 µM)
IC50 (L-1210/Murine Leukemia; 144 h, Sensitive L1210, six day MTT assay, continuous drug exposure, read-out: Concentration for 50% inhibition of tumor cells): 2.5 ng/mL (≈ 0.00785 µM)
IC50 (L-1210/Murine Leukemia; L1210, 96 h, L-1210/Murine Leukemia, 4-day drug exposure, MTT dye reduction, read-out: Activity (IC50)): 3 ng/mL (≈ 0.00942 µM)
IC50 (L-1210/Murine Leukemia; L1210 Leukemia Cells Sensitive, continuous exposure, MTT dye assay, read-out: IC50 VALUES): 2.8 ng/mL (≈ 0.00879 µM)
Overall Response (Melanoma): 64%
IC50 (LOVOp32): 300 nM
IC50 (205p14): 400 nM
